# Source: US20220282325A1, “METHYLATION ASSAYS AND USES THEREOF” (The General Hospital Corporation, priority 2019, published 2022)
# What was measured:
# [1] = tested on: HL-60 cells; assay: XRBS DNA methylation profiling of decitabine-treated cells; format: cell-based, human; conditions: HL-60, 300 nM decitabine, five days
# Procedure: (§1) In order to detect differential methylation across an isogenic system, cell lines were treated with 300 nM decitabine, which inhibits DNA methyltransferase enzymes through covalent entrapment on DNA (FIGS. 22A and 22B). HL-60 and OCI-AML3 were treated, as these had intermediate global methylation levels among the four cell lines examined, and profiled DNA methylation using expanded representation bisulfite sequencing (XRBS) (FIG. 22C).
# (§2) For expanded representation bisulfite sequencing (XRBS) profiles, HL-60 and OCI-AML3 cells were treated with 300 nM decitabine in 6 well plates. Cells were harvested after 5 days and gDNA was extracted using Qiagen DNA Mini Blood Kit (51104). 10 ng of gDNA were used for each library preparation.
# (§3) Before alignment, primer dimers were filtered using Cutadapt version 2.7 and the following parameters:--discard -a GCTCTTCCGATCT. Short read pairs were trimmed using TrimGalore version 0.6.5 and the following parameters: --paired --illumina --nextseq 20. Trimmed sequencing reads were then aligned to an in-silico bisulfate-converted reference genome (hg38 and mm10) using methylCtools version 1.0.0 and bwa mem version 0.7.17. […] Putative PCR duplicates were removed by considering the outer mapping position of both paired-end reads, as well as the random hexamer sequence that was trimmed prior to alignment and functioned as a unique molecular identifier (UMI). For library complexity analysis, alignments were downsampled prior to this step. DNA methylation calling was performed using methylCtools bcall and the --trimPE parameter. DNA methylation values, which are incorporated herein by reference for all purposes, were deposited on GEO (GSE149954, token: azujmeaezxqdxgr).
# (§4) All downstream analyses were performed in R (version 3.6.2), making extensive use of the data.table and GenomicRanges packages. For many analyses, average DNA methylation values within genomic regions were used. Regions included CpG islands, promoters (1 kb up- and downstream of all transcription start sites of protein-coding genes), enhancers and CTCF binding sites (Encyclopedia of DNA Elements (ENCODE) narrowPeak files), and genomic 100 kb-windows. Average methylation values within these regions were calculated by summarizing calls for methylated and unmethylated CpGs across the entire region, and then calculating a single beta-value. For 100 kb-windows, CpGs within islands were not included. Minimum coverage thresholds were applied as indicated. Similarly, average methylation values were calculated for each genomic bin when visualized as heatmaps (genomic regions were separated in 100 equally-sized bins). Differential DNA methylation analysis was performed by sorting regions according to their difference in average methylation values (for enhancers and CTCF binding sites) or by applying a threshold (0.5) on the difference between the average methylation values of one cell line to the average of the other three cell lines (for promoters).
# [2] = tested on: OCI-AML3 cells; assay: as above; format: cell-based, human; conditions: OCI-AML3, 300 nM decitabine, five days, vs DMSO
# Procedure: as §1, §2, §3, §4
smiles,measurement,setting,value
Nc1ncn([C@H]2C[C@H](O)[C@@H](CO)O2)c(=O)n1 [decitabine],decrease of DNA methylation levels in CpG islands,[1]; vs DMSO,9.5%
same,decrease of DNA methylation levels in non-island CpGs,[1]; vs DMSO,20.2%
same,reduction of average global methylation levels,[1]; vs DMSO,19.1%
same,average methylation of non-island CpGs after decitabine treatment,[1]; DMSO control 68.1%,54.3%
same,decrease of DNA methylation levels in CpG islands,[2],11.2%
same,decrease of DNA methylation levels in non-island CpGs,[2],14.0%
same,reduction of average global methylation levels,[2],13.7%
